# Assay results taken from PubChem BioAssay AID624436 (The Scripps Research Institute Molecular Screening Center, 2012).
# The source made the active and inactive calls.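 Rule for the calls: active = no compound was called active, only the inactive limit is stated; inactive = inhibition below 30% at 50 µM.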
# Molecular target: Serine/threonine-protein phosphatase PP1-alpha catalytic subunit (Homo sapiens) (UniProt P62136)
# Assay: inhibitors of PP1 catalytic subunit activity – biochemical, OMFP substrate, fluorescence, powder samples, round 5, selectivity assay for PP5 inhibitor project, late-stage follow-up (AID 624436)
# Settings: purified PP1alpha, OMFP dephosphorylation fluorescence; at 50 µM; active compounds read high
# Sequence of Serine/threonine-protein phosphatase PP1-alpha catalytic subunit (Homo sapiens) (P62136 whole entry, looked up): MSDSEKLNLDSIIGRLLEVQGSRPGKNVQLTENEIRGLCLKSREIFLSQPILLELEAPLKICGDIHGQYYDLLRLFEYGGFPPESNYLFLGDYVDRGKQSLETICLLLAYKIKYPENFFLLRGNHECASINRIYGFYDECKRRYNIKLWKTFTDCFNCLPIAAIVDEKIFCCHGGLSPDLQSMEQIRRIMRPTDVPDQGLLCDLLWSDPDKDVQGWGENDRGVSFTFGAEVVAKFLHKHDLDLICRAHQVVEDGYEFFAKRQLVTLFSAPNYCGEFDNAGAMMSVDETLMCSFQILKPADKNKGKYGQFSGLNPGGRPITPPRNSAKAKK
row,inhibition,Structure (SMILES)
1,2.41% (inactive),CCc1ccccc1-c1n[nH]nc1C(=O)O
2,15.5% (inactive),CCOc1ccccc1-c1n[nH]nc1C(=O)O
3,10.4% (inactive),Cc1ccccc1-c1n[nH]nc1C(=O)O
4,3.75% (inactive),CC(C)c1ccccc1-c1n[nH]nc1C(=O)O

# Further lines, the compound ahead of its results:
row,Structure (SMILES),inhibition
1,O=C(O)c1n[nH]nc1-c1ccccc1-c1ccccc1,0.415% (inactive)
2,O=C(O)c1n[nH]nc1-c1ccccn1,8.42% (inactive)
3,O=C(O)c1n[nH]nc1-c1cccnc1,1.43% (inactive)
4,O=C(O)c1[nH]ccc1-c1ccccc1,4.43% (inactive)
5,O=C(O)c1n[nH]nc1-c1ccccc1C(F)(F)F,7% (inactive)
6,CC(C)Oc1ccccc1-c1n[nH]nc1C(=O)O,9.97% (inactive)
7,Cc1cccc(C)c1-c1n[nH]nc1C(=O)O,6.84% (inactive)
